Test results from article PMC12735921, “Evaluation of Antiproliferative Activity and Molecular Modeling Studies of Some Novel Benzimidazolone-Bridged Hybrid Compounds” (Pharmaceuticals, 2025).
Values joined by “and” are separate entries in the source; they are usually repeats but may differ in a detail not shown here. Equal entries are not always repeated.

Assays:
Format in all cases: cell-based, human
A549 cells [1] = experiment: MTT cell viability assay, A549; conditions: for IC50: Homo sapiens, A549, MTT, 48 h, mean ± SD, n = 3; for A549 Selectivity Index (SI): SI = IC50 (HEK 293)/IC50 (A549)
Description: (§1) Cell viability assay was performed on the human lung cancer (A549) (ATCC CCL-185), human breast cancer (MCF-7) (ATCC-HTB-22), cervical cancer (HeLa) (ATCC-CCL-2), and human embryonic kidney 293 (HEK293) (ATCC-CRL-1573) cell lines, which were purchased from Deutsche Sammlung von Mikroorganismen und Zellkulturen (DSMZ, Braunschweig, Germany). The cells were maintained in Dulbecco’s modified Eagle’s medium (DMEM), supplemented with 10% fetal bovine serum (FBS), 2 mM L-glutamine, 100 U/mL penicillin, and 100 mg/L streptomycin (Biochrom AG, Berlin, Germany) at 37 °C in a humidified atmosphere of 5% CO2.
(§2) The cytotoxic effect was determined by the MTT (3-(4,5-dimethyl-2-thiazolyl)-2,5-diphenyl-2H-tetrazolium bromide) cell viability assay. Cells were seeded at an initial concentration of 1 × 10^5 cells/mL in 96-well microplates. Cells were then treated with different concentrations (0.5, 5, 10, 25, 50, 100 and 200 µM) of the novel synthesized compounds for 48 h. After the incubation period, the formed formazan crystals were dissolved in dimethyl sulfoxide (DMSO), and the optical density (OD) of the compounds was measured at 570 nm using a spectrophotometer (BMG Labtech, Ortenberg, Germany). Cytotoxicity was expressed as an increase in the mean percentage of cytotoxicity relative to the unexposed control ± standard deviation (SD). […] Control values were set at 0% cytotoxicity. IC50 was calculated by fitting the data to a sigmoidal curve using a four-parameter logistic model and was presented as an average of three independent measurements. […] Doxorubicin was used as a positive control. Each sample was tested in triplicate.
(§3) To evaluate the selectivity of the tested compound(s) toward cancer cells over normal cells, the Selectivity Index (SI) was calculated using the following formula:SI = IC50 (normal cells)/IC50 (cancer cells)
(§4) An SI value greater than 2 was considered to indicate selective cytotoxicity, while values below 2 were interpreted as non-selective. Higher SI values reflect greater therapeutic potential due to reduced toxicity toward normal cells.

MCF-7 cells [2] = experiment: MTT cell viability assay, MCF-7; conditions: for IC50: Homo sapiens, MCF7, MTT, 48 h, mean ± SD, n = 3; for MCF-7 Selectivity Index (SI): SI = IC50 (HEK 293)/IC50 (MCF-7)
Description: as §1, §2, §3, §4

HeLa cells [3] = experiment: MTT cell viability assay, HeLa; conditions: for IC50: Homo sapiens, HeLa, MTT, 48 h, mean ± SD, n = 3; for HeLa Selectivity Index (SI): SI = IC50 (HEK 293)/IC50 (HeLa)
Description: as §1, §2, §3, §4

HEK 293 cells = experiment: MTT cell viability assay, non-cancerous HEK 293; conditions: Homo sapiens, HEK293, 48 h, mean ± SD, n = 3
Description: as §1
The cytotoxic effect was determined by the MTT (3-(4,5-dimethyl-2-thiazolyl)-2,5-diphenyl-2H-tetrazolium bromide) cell viability assay. Cells were seeded at an initial concentration of 1 × 10^5 cells/mL in 96-well microplates. Cells were then treated with different concentrations (0.5, 5, 10, 25, 50, 100 and 200 µM) of the novel synthesized compounds for 48 h. After the incubation period, the formed formazan crystals were dissolved in dimethyl sulfoxide (DMSO), and the optical density (OD) of the compounds was measured at 570 nm using a spectrophotometer (BMG Labtech, Ortenberg, Germany). Cytotoxicity was expressed as an increase in the mean percentage of cytotoxicity relative to the unexposed control ± standard deviation (SD). […] Control values were set at 0% cytotoxicity. IC50 was calculated by fitting the data to a sigmoidal curve using a four-parameter logistic model and was presented as an average of three independent measurements. […] Each sample was tested in triplicate.

HeLa cells [4] = experiment: LDH leakage assay, HeLa; conditions: IC50 concentration of compound, 48 h, H2O2 positive control, mean ± SD, n = 3
Description: (§5) One hundred microliters of culture medium was transferred to a new 96-well plate. One hundred microliters of LDH reaction solution was added to each well, and absorbance was measured at 490 nm using an ELISA plate reader (BMG Labtech, Ortenberg, Germany) after 30 min.

A549 cells [5] = experiment: LDH leakage assay, A549; conditions: A549, IC50 concentration of compound, 48 h; H2O2 positive control; mean ± SD, n = 3
Description: as §5

HeLa cells [6] = experiment: Total oxidative status (TOS), HeLa; conditions: IC50 concentration of compound, 48 h, H2O2 250 µM positive control, mean ± SD, n = 3
Description: (§6) TOS were evaluated using a commercially available kit (Rel Assay Diagnostics®, Gaziantep, Turkey) according to the manufacturer’s instructions. […] The TOS assay quantifies oxidizing agents based on their ability to convert an iron (II) ion chelator complex to iron (III) ions. The results were calibrated against hydrogen peroxide (H2O2, 250 µM) as a positive control for 48 h and expressed as µmol H2O2 equivalents per liter. The analysis was performed in three independent biological replicates (n = 3).

A549 cells [7] = experiment: Total oxidative status (TOS), A549; conditions: A549, IC50 concentration of compound, 48 h; H2O2 250 µM positive control; mean ± SD, n = 3
Description: as §6

HeLa cells [8] = experiment: Intracellular GSH/GSSG ratio, HeLa; conditions: IC50 concentration of compound, 48 h, H2O2 positive control, mean ± SD, n = 3
Description: (§7) Intracellular reduced (GSH) and oxidized (GSSG) glutathione levels were measured using the GSH/GSSG Ratio Detection Assay Kit (Cayman Chemical, Ann Arbor, MI, USA, Cat. No: 703002) according to the manufacturer’s protocol. […] After treatment, cells were washed with cold PBS and lysed with MES buffer provided in the kit.
(§8) To prevent oxidation of GSH to GSSG during processing, samples were deproteinized using the supplied metaphosphoric acid solution and neutralized accordingly. Total glutathione and GSSG levels were measured separately by adding the appropriate buffers and reagents to the wells of a 96-well plate, followed by the addition of DTNB recycling reagent and glutathione reductase. Absorbance was read at 405 nm using a microplate reader (BMG Labtech, Germany). The amount of GSH was calculated by subtracting 2 × GSSG from the total glutathione, and the GSH/GSSG ratio was used to assess intracellular redox status.

A549 cells [9] = experiment: Intracellular GSH/GSSG ratio, A549; conditions: A549, IC50 concentration of compound, 48 h; H2O2 positive control; mean ± SD, n = 3
Description: as §7, §8

HeLa cells [10] = experiment: Cell cycle analysis (PI staining, flow cytometry), HeLa; conditions: IC50 concentration, 48 h, mean ± SEM, n = 3
Description: (§9) Cell cycle distribution was assessed by propidium iodide (PI) staining and flow cytometry. HeLa, MCF-7, and A549 cells were seeded in 6-well plates at a density of 1 × 10^5 cells per well and allowed to attach overnight. […] Following exposure, both adherent and floating cells were collected, washed twice with cold phosphate-buffered saline (PBS, pH 7.4), and fixed overnight in 70% cold ethanol at 4 °C. After fixation, the cells were centrifuged and resuspended in 500 µL of PI/RNase staining solution containing 50 µg/mL PI and 100 µg/mL RNase A (Sigma-Aldrich®, St. Louis, MO, USA), followed by incubation in the dark for 30 min at 37 °C. The stained samples were analyzed using a Muse™ Cell Analyzer (Merck, Millipore, Germany) equipped with a 488 nm excitation laser and a 617 nm emission filter. A minimum of 10,000 events per sample were acquired after exclusion of debris and doublets via FSC-A vs. FSC-H gating. The DNA content histograms were generated automatically, and cell populations were expressed as percentages of G0/G1, S, and G2/M phases using the Muse™ Cell Cycle Analysis Software 1.5.0.0. All assays were conducted in triplicate biological repeats (n = 3), and results were reported as mean ± SEM.

A549 cells [11] = experiment: Cell cycle analysis (PI staining, flow cytometry), A549; conditions: A549, IC50 concentration, 48 h, mean ± SEM, n = 3
Description: as §9

MCF-7 cells [12] = experiment: LDH leakage assay, MCF-7; conditions: MCF-7, IC50 concentration of compound, 48 h; H2O2 positive control; mean ± SD, n = 3
Description: as §5

MCF-7 cells [13] = experiment: Total oxidative status (TOS), MCF-7; conditions: MCF-7, IC50 concentration of compound, 48 h; H2O2 250 µM positive control; mean ± SD, n = 3
Description: as §6

MCF-7 cells [14] = experiment: Intracellular GSH/GSSG ratio, MCF-7; conditions: MCF-7, IC50 concentration of compound, 48 h; H2O2 positive control; mean ± SD, n = 3
Description: as §7, §8

MCF-7 cells [15] = experiment: Cell cycle analysis (PI staining, flow cytometry), MCF-7; conditions: MCF-7, IC50 concentration, 48 h, mean ± SEM, n = 3
Description: as §9

IC50 (A549 cells [1]) [µM] | IC50 (MCF-7 cells [2]) [µM] | IC50 (HeLa cells [3]) [µM] | Structure (SMILES) | A549 Selectivity Index (SI) (A549 cells [1]) | MCF-7 Selectivity Index (SI) (MCF-7 cells [2]) | HeLa Selectivity Index (SI) (HeLa cells [3]) | IC50 (HEK 293 cells) [µM] | LDH (A549 cells [5]) | TOS (A549 cells [7]) | GSH/GSSG (A549 cells [9]) | cells in G0/G1 phase (A549 cells [11]) [%] | cells in G2/M phase (A549 cells [11]) [%] | cells in S phase (A549 cells [11]) [%] | other results
15.5 ± 0.89 | 21.9 ± 1.26 | 12.8 ± 0.73 | O=C(Cn1c(=O)n(CC(=O)NNC(=O)c2cc3cc(Cl)cc(Cl)c3oc2=O)c2cc(Cl)c(Cl)cc21)NNC(=O)c1cc2cc(Cl)cc(Cl)c2oc1=O [Compound 12d, N′,N′′′ -(2,2′-(5,6-dichloro-2-oxo-1H-benzo[d]imidazole-1,3(2H)-diyl)bis(acetyl))bis(6,8-Dichloro-2-oxo-2H-chromene-3-carbohydrazide)] | 2.01 | 1.42 | 2.4 | 31.2 ± 1.8 | 27.3 ± 2.2 µU/mL and 27.3 ± 2.2 ^a,b µU/mL | 7.9 ± 0.6 µmol H2O2 eq/L and 7.9 ± 0.6 ^a,b µmol H2O2 eq/L | 10.1 ± 0.9 nmol/mg Protein and 10.1 ± 0.9 ^a,b nmol/mg Protein | 62.1 ± 2.1 | 19.0 ± 1.5 | 18.9 ± 1.4 | LDH (HeLa cells [4]): 29.7 ± 2.4 µU/mL and 29.7 ± 2.4 ^a,b µU/mL; TOS (HeLa cells [6]): 8.4 ± 0.6 µmol H2O2 eq/L and 8.4 ± 0.6 ^a,b µmol H2O2 eq/L; GSH/GSSG (HeLa cells [8]): 9.7 ± 1.0; cells in G0/G1 phase (HeLa cells [10]): 40.1 ± 2.0%; cells in G2/M phase (HeLa cells [10]): 36.4 ± 1.8%
29.5 ± 1.7 | 41.3 ± 2.4 | 31.6 ± 1.82 | O=c1[nH]c2cc(Cl)c(Cl)cc2[nH]1 [Compound 1, 5,6-Dichloro-1,3-dihydro-2H-benzimidazol-2-one] | 2.03 | 1.46 | 1.9 | 60.1 ± 3.47 | 19.8 ± 1.7 µU/mL and 19.8 ± 1.7 ^a,b µU/mL | 6.1 ± 0.4 µmol H2O2 eq/L and 6.1 ± 0.4 ^a,b µmol H2O2 eq/L | 13.5 ± 1.3 nmol/mg Protein and 13.5 ± 1.3 ^a,b nmol/mg Protein | 57.2 ± 1.9 | 20.1 ± 1.5 | 22.7 ± 1.5 | 
10.2 ± 0.58 | 9.7 ± 0.56 | 11.5 ± 0.66 | O=C(Cn1c(=O)n(CC(=O)NNC(=O)c2cc3cc(Br)ccc3oc2=O)c2cc(Cl)c(Cl)cc21)NNC(=O)c1cc2cc(Br)ccc2oc1=O [Compound 12c, N′,N′′′ -(2,2′-(5,6-dichloro-2-oxo-1H-benzo[d]imidazole-1,3(2H)-diyl)bis(acetyl))bis(6-bromo-2-oxo-2H-chromene-3-carbohydrazide)] | 2.01 | 2.21 | 1.86 | 21.5 ± 1.24 | 30.4 ± 2.6 µU/mL and 30.4 ± 2.6 ^a,b µU/mL | 8.5 ± 0.7 µmol H2O2 eq/L and 8.5 ± 0.7 ^a,b µmol H2O2 eq/L | 9.5 ± 0.8 nmol/mg Protein and 9.5 ± 0.8 ^a,b nmol/mg Protein | 68.4 ± 2.4 | 16.4 ± 1.5 | 15.2 ± 1.3 | LDH (MCF-7 cells [12]): 28.8 ± 2.2 µU/mL and 28.8 ± 2.2 ^a,b µU/mL; TOS (MCF-7 cells [13]): 8.3 ± 0.6 µmol H2O2 eq/L and 8.3 ± 0.6 ^a,b µmol H2O2 eq/L; GSH/GSSG (MCF-7 cells [14]): 10.2 ± 1.0 nmol/mg Protein and 10.2 ± 1.0 ^a,b nmol/mg Protein; cells in G0/G1 phase (MCF-7 cells [15]): 72.2 ± 2.3%; cells in G2/M phase (MCF-7 cells [15]): 12.5 ± 1.1%; cells in S phase (MCF-7 cells [15]): 15.3 ± 1.2%
